Reference: PMC2233835 (The Journal of General Physiology, 2001)

Columns and labels:
Assay in all cases: Macroscopic current dose–response in inside-out patches from Xenopus oocytes
Type in all cases: cell-based, chimera of bovine CNG1, catfish CNG2 and rat CNG5
[1] = target: T1, X-β homomeric channels (Bos taurus, UniProt Q00194, A200G/A344S/A378F/A555S/A582V/A612E/C169F/D157S/D193E/D502E/D538A/D577E/D588Q/D604M/DEL101-144/DEL91-95/E147F/E148K/E189Q/E196F/E230D/E231L/F201L/F214C/F374V/F533Y/G160D/G591A/G605N/I156V/I181L/I182V/I235R/I504V/I530V/I566L/I609V/I611A/INS98[…]/K146T/K150R/K151W/K237N/K239I/K346C/K506R/K518R/K521Q/K554M/K590Q/K598R/L195F/L199V/L210I/L351F/L548I/L593M/L606K/M175L/M213T/M580R/M592V/M602L/N161D/N165Y/N613A/P158Q/P173A/Q599E/Q97T/R232A/R345F/R369K/S192D/S205C/S240R/S350C/S371E/S537G/S540L/S553N/T162I/T171A/T179I/T217L/T364M/T584S/V153G/V154F/V174S/V208I/V215I/V487E/V497T/V534A/Y194N/Y197L); conditions: −100 mV
T1 sequence (Q00194 with tags, fused parts or gaps DEL91-95/Q97T/INS98[…]/DEL101-144/K146T/E147F/E148K/K150R/K151W/V153G/V154F/I156V/D157S/P158Q/G160D/N161D/T162I/N165Y/C169F/T171A/P173A/V174S/M175L/T179I/I181L/I182V/E189Q/S192D/D193E/Y194N/L195F/E196F/Y197L/L199V/A200G/F201L/S205C/V208I/L210I/M213T/F214C/V215I/T217L/E230D/E231L/R232A/I235R/K237N/K239I/S240R/A344S/R345F/K346C/S350C/L351F/T364M/R369K/S371E/F374V/A378F/V487E/V497T/D502E/I504V/K506R/K518R/K521Q/I530V/F533Y/V534A/S537G/D538A/S540L/L548I/S553N/K554M/A555S/I566L/D577E/M580R/A582V/T584S/D588Q/K590Q/G591A/M592V/L593M/K598R/Q599E/M602L/D604M/G605N/L606K/I609V/I611A/A612E/N613A): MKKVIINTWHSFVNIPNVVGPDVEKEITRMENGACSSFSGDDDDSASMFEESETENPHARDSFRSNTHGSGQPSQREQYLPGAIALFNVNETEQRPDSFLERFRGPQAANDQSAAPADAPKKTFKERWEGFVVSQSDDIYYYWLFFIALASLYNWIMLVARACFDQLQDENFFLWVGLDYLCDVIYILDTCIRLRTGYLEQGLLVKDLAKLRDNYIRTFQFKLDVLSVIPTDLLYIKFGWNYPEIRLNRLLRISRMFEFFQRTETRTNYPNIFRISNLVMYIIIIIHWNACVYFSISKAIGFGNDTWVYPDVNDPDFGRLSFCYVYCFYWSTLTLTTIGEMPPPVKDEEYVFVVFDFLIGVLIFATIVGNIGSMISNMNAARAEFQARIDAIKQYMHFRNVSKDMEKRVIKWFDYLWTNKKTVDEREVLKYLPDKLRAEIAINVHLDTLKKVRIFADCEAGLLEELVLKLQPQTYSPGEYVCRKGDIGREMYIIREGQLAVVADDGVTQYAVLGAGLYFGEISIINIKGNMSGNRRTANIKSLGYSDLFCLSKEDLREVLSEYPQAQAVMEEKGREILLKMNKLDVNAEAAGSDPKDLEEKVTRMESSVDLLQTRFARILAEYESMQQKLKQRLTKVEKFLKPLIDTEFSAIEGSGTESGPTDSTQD

[2] = target: T2, X-βR/αC (Bos taurus, UniProt Q00194, A200G/A344S/A378F/A555S/A582V/A614G/C169F/D157S/D193E/D502E/D538A/D577E/D604Q/DEL101-144/DEL91-95/E147F/E148K/E189Q/E196F/E230D/E231L/F201L/F214C/F374V/F533Y/G160D/G591K/I156V/I181L/I182V/I235R/I504V/I530V/I566L/I609E/I611V/INS98[…]/K146T/K150R/K151W/K237N/K239I/K346C/K506R/K518R/K521Q/K554M/K590Q/K596R/K598R/L195F/L199V/L210I/L351F/L548I/M175L/M213T/M580R/M592V/M602R/N161D/N165Y/N610S/N613A/P158Q/P173A/Q599E/Q97T/R232A/R345F/R369K/S192D/S205C/S240R/S350C/S371E/S537G/S540L/S553N/T162I/T171A/T179I/T217L/T364M/T584S/V153G/V154F/V174S/V208I/V215I/V487E/V497T/V534A/Y194N/Y197L)
T2 sequence (Q00194 with tags, fused parts or gaps DEL91-95/Q97T/INS98[…]/DEL101-144/K146T/E147F/E148K/K150R/K151W/V153G/V154F/I156V/D157S/P158Q/G160D/N161D/T162I/N165Y/C169F/T171A/P173A/V174S/M175L/T179I/I181L/I182V/E189Q/S192D/D193E/Y194N/L195F/E196F/Y197L/L199V/A200G/F201L/S205C/V208I/L210I/M213T/F214C/V215I/T217L/E230D/E231L/R232A/I235R/K237N/K239I/S240R/A344S/R345F/K346C/S350C/L351F/T364M/R369K/S371E/F374V/A378F/V487E/V497T/D502E/I504V/K506R/K518R/K521Q/I530V/F533Y/V534A/S537G/D538A/S540L/L548I/S553N/K554M/A555S/I566L/D577E/M580R/A582V/T584S/K590Q/G591K/M592V/K596R/K598R/Q599E/M602R/D604Q/I609E/N610S/I611V/N613A/A614G): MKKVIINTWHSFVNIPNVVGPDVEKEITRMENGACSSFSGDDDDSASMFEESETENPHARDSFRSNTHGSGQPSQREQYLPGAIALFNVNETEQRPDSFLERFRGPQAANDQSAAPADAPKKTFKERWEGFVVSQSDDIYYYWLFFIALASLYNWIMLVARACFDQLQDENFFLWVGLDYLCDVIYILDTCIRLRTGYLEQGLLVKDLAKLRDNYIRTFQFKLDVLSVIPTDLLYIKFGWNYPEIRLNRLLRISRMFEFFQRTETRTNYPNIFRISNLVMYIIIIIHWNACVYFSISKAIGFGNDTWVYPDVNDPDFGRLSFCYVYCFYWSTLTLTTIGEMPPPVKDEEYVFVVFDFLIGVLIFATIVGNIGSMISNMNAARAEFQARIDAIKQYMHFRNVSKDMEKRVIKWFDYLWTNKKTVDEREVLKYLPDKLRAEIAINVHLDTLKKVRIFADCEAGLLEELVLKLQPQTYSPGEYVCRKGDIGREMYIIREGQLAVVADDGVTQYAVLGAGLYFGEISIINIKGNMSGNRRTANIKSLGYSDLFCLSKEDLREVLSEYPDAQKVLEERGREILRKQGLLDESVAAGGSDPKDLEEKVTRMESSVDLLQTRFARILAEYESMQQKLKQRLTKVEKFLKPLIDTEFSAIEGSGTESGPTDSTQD

[3] = target: T3, X-αR/βC (Bos taurus, UniProt Q00194, A200G/A344S/A378F/A555M/A612E/C169F/D157S/D193E/D538A/D588Q/D604M/DEL101-144/DEL91-95/E147F/E148K/E189Q/E196F/E230D/E231L/F201L/F214C/F374V/G160D/G591A/G605N/I156V/I181L/I182V/I235R/I530V/I609V/I611A/INS98[…]/K146T/K150R/K151W/K237N/K239I/K346C/K506R/K521Q/K551Q/K564R/K590Q/K598R/L195F/L199V/L210I/L351F/L583V/L593M/L606K/M175L/M213T/M592V/M602L/N161D/N165Y/N613A/P158Q/P173A/Q494R/Q599E/Q97T/R232A/R345F/R369K/R512K/S192D/S205C/S240R/S350C/S371E/S537T/S540G/T162I/T171A/T179I/T217L/T364M/T584A/V153G/V154F/V174S/V208I/V215I/V534A/V535L/Y194N/Y197L/Y541C)
T3 sequence (Q00194 with tags, fused parts or gaps DEL91-95/Q97T/INS98[…]/DEL101-144/K146T/E147F/E148K/K150R/K151W/V153G/V154F/I156V/D157S/P158Q/G160D/N161D/T162I/N165Y/C169F/T171A/P173A/V174S/M175L/T179I/I181L/I182V/E189Q/S192D/D193E/Y194N/L195F/E196F/Y197L/L199V/A200G/F201L/S205C/V208I/L210I/M213T/F214C/V215I/T217L/E230D/E231L/R232A/I235R/K237N/K239I/S240R/A344S/R345F/K346C/S350C/L351F/T364M/R369K/S371E/F374V/A378F/Q494R/K506R/R512K/K521Q/I530V/V534A/V535L/S537T/D538A/S540G/Y541C/K551Q/A555M/K564R/L583V/T584A/D588Q/K590Q/G591A/M592V/L593M/K598R/Q599E/M602L/D604M/G605N/L606K/I609V/I611A/A612E/N613A): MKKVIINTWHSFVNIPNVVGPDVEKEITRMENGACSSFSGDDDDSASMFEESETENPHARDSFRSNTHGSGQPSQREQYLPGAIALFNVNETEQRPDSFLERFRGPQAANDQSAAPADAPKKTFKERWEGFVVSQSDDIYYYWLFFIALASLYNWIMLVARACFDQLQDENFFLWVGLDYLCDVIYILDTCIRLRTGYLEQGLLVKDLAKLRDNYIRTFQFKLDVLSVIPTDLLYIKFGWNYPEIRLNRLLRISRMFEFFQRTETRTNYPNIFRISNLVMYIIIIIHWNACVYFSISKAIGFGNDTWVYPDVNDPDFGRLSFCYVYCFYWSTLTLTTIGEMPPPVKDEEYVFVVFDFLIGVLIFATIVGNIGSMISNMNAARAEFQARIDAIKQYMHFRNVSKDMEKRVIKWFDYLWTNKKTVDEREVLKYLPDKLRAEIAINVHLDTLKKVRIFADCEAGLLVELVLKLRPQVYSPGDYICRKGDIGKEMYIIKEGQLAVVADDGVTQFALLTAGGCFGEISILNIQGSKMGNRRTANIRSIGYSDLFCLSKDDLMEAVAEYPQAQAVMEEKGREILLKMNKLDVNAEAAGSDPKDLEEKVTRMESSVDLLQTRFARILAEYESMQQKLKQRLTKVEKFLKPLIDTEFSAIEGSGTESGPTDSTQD

Nc1nc2c(ncn2[C@@H]2O[C@@H]3COP(=O)([O-])O[C@H]3[C@H]2O)c(=O)[nH]1.[Na+] [cGMP] was tested, and the Hill coefficient h ([1]; one patch (Fig. 1C), Hill fit ± SE) was 1.94 ± 0.13, the Hill coefficient h ([1]; mean ± SD of individual patches) was 2.07 ± 0.27 (9) and the Desensitization [2] was “No”. The Hill coefficient h ([2]; one patch (Fig. 6 B2), −100 mV, Hill fit ± SE) was 1.95 ± 0.22, the Desensitization [3] was “Yes” and the “agonist concentration above which desensitization occurs” value ([3]; biphasic dose–response curve) was “above 3 mM”. For the same compound, the Hill coefficient h ([3]; −100 mV, composite fit ± SEM, cGMP: excluding data >3 mM) was 1.120 ± 0.044.
